Values quoted from earlier work, collected in patent US20220409591A1, “Pharmaceutical Formulations for Managing Uric Acid Content in Human Body” (ZYCIE TECHNOLEGAL LLP, priority 2019, published 2022).

How the values were obtained:
[1] = known

- bioavailability [1]: more than 80%
- mean terminal elimination half-life [1]: 5 to 8 h
- BCS class (poorly water-soluble drug): BCS Class II
Compound: Cc1nc(-c2ccc(OCC(C)C)c(C#N)c2)sc1C(=O)O [febuxostat, 2-[3-cyano-4-(2-methylpropoxy)phenyl]-4-methylthiazole-5-carboxylic acid]
